How the values were obtained:
[1] = molecular target: muscarinic cholinergic receptor (rat brain cerebral cortex homogenate); format: binding; conditions: 0.25 nM 3H-QNB, 25° C., 120 minutes
[2] = molecular target: high affinity agonist conformation of the muscarinic cholinergic receptor (rat brain cerebral cortex homogenate); experiment: [3H]-Cis-methyldioxolane (3H-CD) binding assay (high affinity); conditions: 1.0 nM 3H-CD, 25° C., 120 minutes
[3] = tested on: aged monkey; conditions: aged monkeys; cited from earlier work
[4] = tested on: SDAT patients; conditions: compared to physostigmine; cited from earlier work

| SMILES | Ki [1] | Ki [2] | performance in aged monkey model of SDAT [3] | improvement in SDAT patients [4] |
| --- | --- | --- | --- | --- |
| CN(C)CC#CCN1C(=O)C=CC1=O [1-[4-(Dimethylamino)-2-butynyl]-1H-pyrrole-2,5-dione] | 1.74 µM | 1.48 µM |  |  |
| CSC1CC(=O)N(CC#CCN(C)C)C1=O (centres unmarked) [1-[4-(Dimethylamino)-2-butynyl]-3-(methylthio)-2,5-pyrrolidinedione] | > 100 µM | 1.6 µM |  |  |
| CC1=CC(=O)N(CC#CCN(C)C)C1=O [1-[4-(Dimethylamino)-2-butynyl]-3-methyl-1H-pyrrole-2,5-dione] | 1.4 µM | 3.4 µM |  |  |
| CSC1CC(=O)N(CC#CCN2CCCC2)C1=O (centres unmarked) [3-(Methylthio)-1-[4-(1-pyrrolidinyl)-2-butynyl]-2,5-pyrrolidinedione] | 2.2 µM | 1.78 µM |  |  |
| CC1=CC(=O)N(CC#CCN2CCCC2)C1=O [3-Methyl-1-[4-(1-pyrrolidinyl)-2-butynyl]-1H-pyrrole-2,5-dione] | 0.2 µM | 0.53 µM |  |  |
| C[N+](C)(C)CC#CCN1C(=O)C=CC1=O [4-(2,5-Dihydro-2,5-dioxo-1H-pyrrol-1-yl)-N,N,N-trimethyl-2-butyne-1-aminium iodide] | 11 µM | 0.29 µM |  |  |
| CC1=CC(=O)N(CC#CC[N+](C)(C)C)C1=O [4-(2,5-Dihydro-3-methyl-2,5-dioxo-1H-pyrrol-1-yl)-N,N,N-trimethyl-2-butyne-1-aminium iodide] | 2.3 µM | 0.56 µM |  |  |
| COC(=O)C1=CCCN(C)C1 [arecoline] |  |  | significant improvement in performance | more consistent improvement |
| O=C1CCCN1CC#CCN1CCCC1 [oxotremorine] |  |  | significant improvement in performance |  |
